Measured values taken from US6627771B1, “Gamma amino butyric and acid analogs” (Pfizer Inc, priority 1998, dated 2003).

What follows are molecules tested on Vogel Conflict (punished drinking) in Wistar rats (assay: Vogel Conflict). Conditions: summary of Table 1.
Format: in vivo, rat
Description: Vogel J. R., Beer B. and Cloody D. E., 1971, reported the procedure used. Basically, in each experiment, 100 näive adult male Wistar rats between 170-220 gm were randomly divided into 10 groups and deprived of water for 48 hours prior to testing. Food was available on Day 1 and removed 24 hours prior to test Day 2.
On Day 1, experimental subjects were placed into the test chambers and allowed to drink 5 mL of water unpunished from a drinking tube on a water bottle mounted on the outside of the chamber. Immediately following the unpunished drinking session, each rat was dosed (PO) with vehicle (1 mL/kg) and returned to their home cage. On test Day 2, rats are dosed with the appropriate treatment and placed in test cages, following a 2-hour absorption period each rat is placed into a test chamber and allowed to drink for 10 minutes. Adjacent to the drink-tube is an optical lickmeter with a photo beam detector that counts the number of licks during active drinking. Every 10 licks, the rats received 1-second shock (1 mA) through the drink tube. Thus, a conflict or anxiety-producing situation exists; rats are motivated to drink, however, they are inhibited by the shock. Anxiety is reflected by the low amounts of drinking. Standard anxiolytic drugs produce effects that allow rats to overcome this behavioral inhibition and drink despite the shock.

In the case of `NC[C@H](CC(=O)O)C1CCCC1` [4R+, 4(R)-Amino-3-cyclopentyl-butyric Acid], the “antianxiety activity” value is reported as “especially active”.

Each molecule was assayed against System L (assay: System L Binding). Conditions: not given.

Compared with `NC[C@H](CC(=O)O)C1CCCC1` [4R+, 4(R)-Amino-3-cyclopentyl-butyric Acid], `NC[C@@H](CC(=O)O)C1CCCC1` [5S−, (S)-4-Amino-3-cyclopentyl-butyric Acid] is 2.4-fold higher in IC50: 198 µM for the first, 476 µM for the second.

First: NCC(CC(=O)O)C1CCC1 (centres unmarked) [Example 2, 4-Amino-3-cyclobutyl-butyric Acid]
Second: NCC(CC(=O)O)C1CCCC1 (centres unmarked) [Example 3, 4-Amino-3-cyclopentyl-butyric Acid]
The IC50 of the first is 3.2-fold higher: 1500 µM for the first, 464 µM for the second.

`NCC(CC(=O)O)CC1CC1` (centres unmarked) [Example 6] and `NCC(CC(=O)O)CC1CCC1` (centres unmarked) [Example 7] are within 1.5-fold of each other in IC50: 1870 µM for the first, 2600 µM for the second.

`NCC(CC(=O)O)CC1CCCC1` (centres unmarked) [Example 8] and `NCC(CC(=O)O)CC1CCCCC1` (centres unmarked) [Example 9] are within 1.5-fold of each other in IC50: 4640 µM for the first, 5500 µM for the second.

Compared with `CC(CN)(CC(=O)O)C1CC1` (centres unmarked) [Example 10], `CC(CN)(CC(=O)O)C1CCC1` (centres unmarked) [Example 11] is 8.1-fold lower in IC50: 599 µM for the first, 74 µM for the second. The second is the more potent here.

First: CC(CN)(CC(=O)O)CC1CCC1 (centres unmarked) [Example 12]
Second: CC(CN)(CC(=O)O)CC1CCCC1 (centres unmarked) [Example 13]
The IC50 of the first is 9.9-fold lower: 105 µM for the first, 1040 µM for the second.

The molecules below were run on sound-induced seizure responses in DBA/2 mice (assay: DBA2 Mouse Model of Anticonvulsant Efficacy). Conditions: Mus musculus, po; 1 Hr @ 30 m/k; read-out: DBA2 Mouse Model % Protected.
Format: in vivo
Description: DBA2 Mouse Model of Anticonvulsant Efficacy
All procedures were carried out in compliance with the NIH Guide for the Care and Use of Laboratory Animals under a protocol approved by the Parke-Davis Animal Use Committee. Male DBA/2 mice, 3 to 4 weeks old were obtained from Jackson Laboratories Bar Harbour, Maine. Immediately before anticonvulsant testing, mice were placed upon a wire mesh, 4 inches square, suspended from a steel rod. The square was slowly inverted through 180° and mice observed for 30 seconds. Any mouse falling from the wire mesh was scored as ataxic (Coughenour L. L., McLean J. R., Parker R. B., “A new device for the rapid measurement of impaired motor finction in mice,” Pharm. Biochem. Behav., 1977;6(3):351-3). Mice were placed into an enclosed acrylic plastic chamber (21 cm height, approximately 30 cm diameter) with a high-frequency speaker (4 cm diameter) in the center of the top lid. An audio signal generator (Protek model B-810) was used to produce a continuous sinusoidal tone that was swept linearly in frequency between 8 kHz and 16 kHz once each 10 msec. The average sound pressure level (SPL) during stimulation was approximately 100 dB at the floor of the chamber. Mice were placed within the chamber and allowed to acclimatize for one minute. […] The incidence of all the seizure phases in the drug-treated and vehicle-treated mice was recorded, and the occurrence of tonic seizures were used for calculating anticonvulsant ED50 values by probit analysis (Litchfield J. T., Wilcoxon F. “A simplified method for evaluating dose-effect experiments,” J. Pharmacol., 1949;96:99-113). […] Groups of DBA/2 mice (n=5-10 per dose) were tested for sound-induced seizure responses 2 hours (previously determined time of peak effect) after given drug orally. […] Doses are expressed as weight of the active drug moiety.

Molecule `NCC(CC(=O)O)C1CCC1` (centres unmarked) [Example 2, 4-Amino-3-cyclobutyl-butyric Acid] has a responders at 30 mg/kg of 0%.

Same assay, conditions: Mus musculus, po; 2 Hr @ 30 m/k; read-out: DBA2 Mouse Model % Protected

`NCC(CC(=O)O)C1CCC1` (centres unmarked) [Example 2, 4-Amino-3-cyclobutyl-butyric Acid] gave a responders at 30 mg/kg of 40%.

Same assay, conditions: summary of Table 1

`NC[C@H](CC(=O)O)C1CCCC1` [4R+, 4(R)-Amino-3-cyclopentyl-butyric Acid] was tested, and the “preventing convulsions” value was “especially active”.

These molecules were tested on Carrageenin-Induced Hyperalgesia (assay: Pain Model (Carrageenin-Induced Hyperalgesia, rat paw pressure test)). Conditions: 1 Hour.
Format: in vivo
Description: Carrageenin-Induced Hyperalgesia
Nociceptive pressure thresholds were measured in the rat paw pressure test using an analgesymeter (Randall-Sellitto Method: Randall L. O., Sellitto J. J., A method for measurement of analgesic activity on inflamed tissue. Arch. Int. Pharmacodyn., 4:409-419 (1957)). Male Sprague-Dawley rats (70-90 g) were trained on this apparatus before the test day. Pressure was gradually applied to the hind paw of each rat and nociceptive thresholds were determined as the pressure (g) required to elicit paw withdrawal. A cutoff point of 250 g was used to prevent any tissue damage to the paw. On the test day, two to three baseline measurements were taken before animals were administered 100 μL of 2% carrageenin by intraplantar injection into the right hind paw.

First: NC[C@H](CC(=O)O)C1CCCC1 [4R+, 4(R)-Amino-3-cyclopentyl-butyric Acid]
Second: NC[C@@H](CC(=O)O)C1CCCC1 [5S−, (S)-4-Amino-3-cyclopentyl-butyric Acid]
The “Pain Model % MPE 1 Hour” value of the first is higher: 36 % MPE for the first, 35 % MPE for the second.

First: NCC(CC(=O)O)C1CCC1 (centres unmarked) [Example 2, 4-Amino-3-cyclobutyl-butyric Acid]
Second: NCC(CC(=O)O)C1CCCC1 (centres unmarked) [Example 3, 4-Amino-3-cyclopentyl-butyric Acid]
The “Pain Model % MPE 1 Hour” value of the first is lower: −1.7 % MPE for the first, 73.8 % MPE for the second.

Compared with `NCC(CC(=O)O)CC1CC1` (centres unmarked) [Example 6], `NCC(CC(=O)O)CC1CCC1` (centres unmarked) [Example 7] is lower in “Pain Model % MPE 1 Hour” value: 2.3 % MPE for the first, 1.5 % MPE for the second.

Going from `CC(CN)(CC(=O)O)C1CC1` (centres unmarked) [Example 10] to `CC(CN)(CC(=O)O)C1CCC1` (centres unmarked) [Example 11], the “Pain Model % MPE 1 Hour” value rises from −4.3 % MPE to 4.2 % MPE.

`CC(CN)(CC(=O)O)CC1CCC1` (centres unmarked) [Example 12] was tested, and the “Pain Model % MPE 1 Hour” value was −4.2 % MPE.

Same assay, conditions: 2 Hour

Compared with `NC[C@H](CC(=O)O)C1CCCC1` [4R+, 4(R)-Amino-3-cyclopentyl-butyric Acid], `NC[C@@H](CC(=O)O)C1CCCC1` [5S−, (S)-4-Amino-3-cyclopentyl-butyric Acid] is higher in “Pain Model % MPE 2 Hour” value: 13.7 % MPE for the first, 24 % MPE for the second.

Compared with `NCC(CC(=O)O)C1CCC1` (centres unmarked) [Example 2, 4-Amino-3-cyclobutyl-butyric Acid], `NCC(CC(=O)O)C1CCCC1` (centres unmarked) [Example 3, 4-Amino-3-cyclopentyl-butyric Acid] is higher in “Pain Model % MPE 2 Hour” value: −12.1 % MPE for the first, 27.7 % MPE for the second.

`NCC(CC(=O)O)CC1CC1` (centres unmarked) [Example 6] and `NCC(CC(=O)O)CC1CCC1` (centres unmarked) [Example 7] are the same in “Pain Model % MPE 2 Hour” value: −3.4 % MPE for the first, −3.4 % MPE for the second.

Going from `CC(CN)(CC(=O)O)C1CC1` (centres unmarked) [Example 10] to `CC(CN)(CC(=O)O)C1CCC1` (centres unmarked) [Example 11], the “Pain Model % MPE 2 Hour” value rises from −9.1 % MPE to 3.1 % MPE.

With `CC(CN)(CC(=O)O)CC1CCC1` (centres unmarked) [Example 12] the “Pain Model % MPE 2 Hour” value was −5.2 % MPE.

Same assay, conditions: summary of Table 1

With `NC[C@H](CC(=O)O)C1CCCC1` [4R+, 4(R)-Amino-3-cyclopentyl-butyric Acid] the “antihyperalgesic activity” value was “especially active”.
